Assay results as given in ChEMBL document CHEMBL5726651, “Alkyne compounds for treatment of complement mediated disorders” (2017).
pIC50: −log10 of the molar value.

Target: Complement factor D (Homo sapiens, UniProt P00746)
Test: Inhibition Assay: Human factor D (purified from human serum, Complement Technology, Inc.) at 80 nM final concentration is incubated with test compound at various concentrations for 5 minutes at room temperature in 50 mM Tris, 1M NaCl, pH 7.5. A synthetic substrate Z-L-Lys-SBzl and DTNB (Ellman's reagent) are added to final concentrations of 100 μM each. The increase in color is recorded at OD405 nm in a microplate in kinetic mode over 30 minutes with 30 second time points in a […]. IC50 values are calculated by non-linear regression from the percentage of inhibition of complement factor D activity as a function of test compound concentration.

Chain of Complement factor D (P00746 whole entry): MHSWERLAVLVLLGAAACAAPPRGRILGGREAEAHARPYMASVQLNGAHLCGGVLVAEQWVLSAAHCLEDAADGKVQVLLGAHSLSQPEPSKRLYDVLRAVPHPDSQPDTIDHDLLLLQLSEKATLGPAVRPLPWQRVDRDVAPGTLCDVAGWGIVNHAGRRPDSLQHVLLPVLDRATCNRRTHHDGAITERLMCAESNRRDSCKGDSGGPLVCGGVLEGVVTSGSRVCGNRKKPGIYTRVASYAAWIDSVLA

NC(=O)c1nn(CC(=O)N2C[C@H](F)C[C@H]2C(=O)Nc2cncc(Br)n2)c2ccc(C#Cc3ncc(F)cn3)cc12
pIC50: > 6.00
